{"source": "patent US20260366023A1", "about": "“SORTILIN INHIBITORS FOR TREATMENT OF PATIENTS WITH FUNCTIONAL NEUROENDOCRINE TUMORS” (priority 2023, published 2026)", "molecules": {"B1": {"name": "AL001: anti-sortilin antibody; heavy chain having an amino acid sequence of SEQ ID NO: 1 and a light chain having an amino acid sequence of SEQ ID NO: 2 (antibody, chains of the INN, looked up, V domains shown)", "VH": "QVQLQESGPGLVKPSETLSLTCAVSGYSISSGYYWGWIRQPPGKGLEWIGTIYHSGSTYYNPSLKSRVTISVDTSKNQFSLKLSSVTAADTAVYYCARQGSIKQGYYGMDVWGQGTTVTVSS", "VL": "DIVMTQSPLSLPVTPGEPASISCRSSQSLLRSTGYNYLDWYLQKPGQSPQLLIYLGSNRASGVPDRFSGSGSGTDFTLKISRAEAEDVGVYYCMQQQEAPLTFGGGTKVEIK"}}, "key": {"[1]": {"test_system": "sortilin", "conditions": "Lee et al., 2014; cited from earlier work"}, "[2]": {"conditions": "cited from earlier work"}, "[3]": {"conditions": "cited from earlier work", "remark": "listed apart in the source"}, "[4]": {"test_system": "BON cells", "experiment": "Alamar Blue cell proliferation/viability assay of BON cells after sortilin inhibition", "assay_type": "cell-based, human", "conditions": "5 d of sortilin inhibition", "procedure": "FIG. 4: Proliferation of BON cells after sortilin inhibition. To exclude the possibility of toxic effects of sortilin inhibition on BON cells, a cell proliferation assay was performed using the Alamar Blue cell viability assay 5 days after sortilin inhibition.\nTo exclude the possibility of toxic effects of sortilin inhibition on the BON cells and thereby reducing 5HT production, we performed a cell proliferation assay using Alamar Blue."}, "[5]": {"test_system": "murine intestinal organoids enriched with neuroendocrine cells", "experiment": "Serotonin content of murine intestinal organoids enriched with neuroendocrine cells, HPLC", "assay_type": "cell-based", "conditions": "10 μM, four days, organoid lysates, vs control", "procedure": "FIG. 7: Effect of sortilin inhibition on serotonin content of neuroendocrine organoids. (A) Experimental scheme for testing the effects of sortilin inhibition on serotonin levels in neuroendocrine organoids. Murine intestinal organoids are generated and enriched with neuroendocrine cells as previously described in (Kawasaki et al, 2018; Basak et al, 2017). […] Organoids are subsequently incubated four days in the absence (control) or the presence of the sortilin inhibitor AF38469 (10 μM). The lysates of these organoids are next harvested, and serotonin levels are measured by HPLC.\nSome of these organoids were treated additionally four days with the sortilin inhibitor AF38469 (10 μM). Subsequently, the lysates of these organoids were harvested, and serotonin was measured by HPLC (FIG. 7A)."}, "[6]": {"test_system": "BON neuroendocrine tumor cells", "experiment": "Serotonin (5HT) content of BON cell lysates after sortilin inhibition, HPLC", "assay_type": "cell-based, human", "conditions": "10 μM; 23 h in serotonin free medium, then fresh inhibitor for two more hours; compared to control", "procedure": "(§1) (A)-(D) BON neuroendocrine tumor cells were incubated for 23 h in serotonin free medium with (Sort Inh) or without (Control) the sortilin inhibitor AF38469 (10 μM). Afterwards, the serotonin (5HT, A), Tryptophan (TRP, B) and Tyrosin (TYR, C) content as well as the content of the serotonin metabolite 5-hydroxyindoleacetic acid (5-HIAA) in the cell culture supernatant was assessed using high performance liquid chromatography (HPLC). The cells were treated with fresh sortilin inhibitor for two more hours. Subsequently, the 5HT, (E, F), TRP, (G, H) and TYR (I, J) content in the cell lysates was measured in the presence or absence of the secretion inductor of monoamines Paramethoxyamphetamin (PMA) via HPLC as well.\n(§2) Next, we wanted to analyze whether sortilin has a functional role in hormone production or secretion of neuroendocrine tumors. We focused on one of the most relevant functional syndromes, i. e. the carcinoid syndrome which is caused due to the overproduction and secretion of serotonin (Clement et al., 2020). […] Afterwards we measured the serotonin (5HT) content in the cell culture supernatant by using high performance liquid chromatography (HPLC) (FIG. 3A-D). […] Subsequently, the 5HT content in the cell lysates was measured by using HPLC as well (FIG. 3E-J)."}, "[7]": {"conditions": "Schroder et al, 2014; cited from earlier work"}, "[8]": {"test_system": "sortilin", "conditions": "Schroder et al, 2014; cited from earlier work"}, "[9]": {"test_system": "BON neuroendocrine tumor cells", "experiment": "Serotonin (5HT) content of BON cell culture supernatant (secretion) after sortilin inhibition, HPLC", "assay_type": "cell-based, human", "procedure": "as §1, §2"}, "[10]": {"test_system": "sortilin", "conditions": "Phase 2 and Phase 3 clinical trials, including NCT04374136, NCT03987295, NCT03636204 and NCT05053035; cited from earlier work"}}, "data": [{"molecule": "Cc1ccc(C(C)(C)C)c(OCCN2CCCC(C)C2)c1", "note": "(stereo not drawn) [MPEP, 1-[2-(2-tert-butyl-5-methylphenoxy)-ethyl]-3-methylpiperidine]", "values": [{"measurement": "degradation of sortilin", "setting": "[1]", "result": "increasing"}, {"measurement": "sortilin protein levels", "setting": "[1]", "result": "suppressing"}]}, {"molecule": "Cc1cc(=O)oc2c(CN[C@@H](CC(C)C)C(=O)O)c(O)ccc12", "note": "[AF40431, (2S)-2-{[(7-hydroxy-4-methyl-2-oxo-2H-chromen-8-yl)methyl]amino}-4-methylpentanoic acid]", "values": [{"measurement": "solubility", "setting": "[2]", "result": "comparably poor"}, {"measurement": "membrane permeability", "setting": "[3]", "result": "comparably poor"}]}, {"molecule": "Cc1cccc(NC(=O)c2ccc(C(F)(F)F)cc2C(=O)O)n1", "note": "[AF38469, 2-[[(6-methyl-2-pyridinyl)amino]carbonyl]-5-(trifluoromethyl)-benzoic acid]", "values": [{"measurement": "reduction in cell proliferation", "setting": "[4]", "result": "could exclude any reduction in cell proliferation"}, {"measurement": "concentration of serotonin (5HT) per cell", "setting": "[5]", "result": "lower concentration"}, {"measurement": "cellular content of 5HT", "setting": "[6]", "result": "significantly lower"}, {"measurement": "oral bioavailability", "setting": "[7]", "result": "orally bioavailable"}, {"measurement": "selectivity for sortilin over several of its naturally occurring ligands, including neurotensin-1", "setting": "[8]", "result": "highly selective"}, {"measurement": "concentration of 5HT in the supernatants", "setting": "[9]; 10 μM, 23 h in serotonin free medium, HPLC", "result": "below the detection level"}, {"measurement": "secretion of serotonin by NEN cells", "setting": "[9]; NEN cells, summary statement referring to the Examples", "result": "suppress"}]}, {"molecule": "B1", "values": [{"measurement": "treatment of frontotemporal dementia and/or ALS", "setting": "[10]", "result": "successfully tested"}]}]}
